According to paper PMC12410356 (International Journal for Parasitology: Drugs and Drug …, 2025):

What was measured:
[1] = test system: E. multilocularis metacestode vesicles; experiment: Phosphoglucose isomerase (PGI) release assay (damage-marker release) on metacestode vesicles; assay type: cell-based, Echinococcus multilocularis; details: 10 μM; for PGI d5 (relative PGI release): 5 days; for PGI d12 (relative PGI release): 12 days
[2] = test system: E. multilocularis metacestode vesicles; experiment: Metacestode vesicle viability assay (ATP, CellTiter-Glo); assay type: cell-based, Echinococcus multilocularis
Procedure: Viability was assessed after 12 days using the same metacestode vesicles as for the PGI release assay. Triton X-100 was added to each well to a final concentration of 0.1 %. Subsequently the metacestode vesicles were broken mechanically and 50 μL of the supernatant was mixed with 50 μL of CellTiter-Glo® buffer (Promega, Dübendorf, Switzerland). Measurements were performed on a HIDEX Sense microplate reader.

[3] = overview screen, singlets, relative to 0.1 % Triton X-100, DMSO subtracted
[4] = overview screen, 10 μM, singlets, 12 days, relative to DMSO control
[5] = confirmation screen, triplicates, mean
[6] = confirmation screen, 10 μM, triplicates, mean, 12 days

SMILES | PGI d5 (relative PGI release) [1, 3] [%] | PGI d12 (relative PGI release) [1, 3] [%] | Viability d12 (relative viability) [2, 4] [%] | PGI d5 (relative PGI release) [1, 5] [%] | PGI d12 (relative PGI release) [1, 5] [%] | Viability d12 (relative viability) [2, 6] [%] | Viability d12 (relative viability) ([2]; 10 µM) [%] | activity in the PGI release assay (in words) ([1]; overview screen, twelve days, cut-off PGI release ≥20 %) | viability at 10 µM ([2]; Echinococcus multilocularis, 288 h, overview screen, 10 μM, singlets, 12 days, relative to DMSO control, read-out: Viability d12 (relative viability)) [%] | effect on metacestode vesicle viability (in words) ([2]; overview screen, 10 μM, twelve days, cut-off viability ≤30 %)
COc1cc(C2C3=C(CC(C)(C)CC3=O)Nc3ccccc3N2C(C)=O)ccc1OCc1ccccc1 (centres unmarked) [MMV1634557] | -2.659 | -23.764 | 141.611 |  |  |  |  |  |  | 
CC[C@H](NC(=O)[C@H](C)NC)C(=O)N1C[C@@H](O)C[C@H]1Cc1c(-c2[nH]c3cc(F)ccc3c2C[C@@H]2C[C@H](O)CN2C(=O)[C@H](CC)NC(=O)[C@H](C)NC)[nH]c2cc(F)ccc12 [MMV1557856] | -1.122 | -0.1165 | 106.397 |  |  |  |  |  |  | 
CCC(C)NCC(O)Cn1c2ccc(Cl)cc2c2cc(Cl)ccc21 (centres unmarked) [MMV1578570] | 90.467 | 70.4859 | 22.9025 | -0.08 | 0.27 | 94.06 |  |  |  | 
NCC(=O)Nc1ccc(-n2nc(C(F)(F)F)cc2-c2ccc3c(ccc4ccccc43)c2)cc1 [MMV1578560] | 3.295 | 35.9177 | 75.9823 |  |  |  |  |  |  | 
CCCCSc1nc(N)c2[nH]c(=O)c(=O)n(Cc3ccccc3)c2n1 [MMV1579783] | 3.365 | -15.2556 | 63.4578 |  |  |  |  |  |  | 
N[C@@H]1CN(c2c(F)cc3c(=O)c(C(=O)O)cn([C@@H]4C[C@@H]4F)c3c2Cl)CC12CC2 [MMV1579850] | -2.37 | -5.627 | 103.25 |  |  |  |  |  |  | 
NC(=O)c1c(N)sc2c1CCCCC2 [MMV056052] | 0.2417 | 3.2439 | 78.9817 |  |  |  |  |  |  | 
Nc1nc2c(ncn2/C=C2/CC2(CO)CO)c(=O)[nH]1 [MMV1782210] | 0.1371 | -1.147 | 144.056 |  |  |  |  |  |  | 
CCCCc1ccc(-c2nc(C)c(C(=O)OC)s2)cc1 [MMV1634392] | 0.3728 | 0.05977 | 152.475 |  |  |  |  |  |  | 
COc1ccccc1NC(=O)c1ccccc1Sc1ccc([N+](=O)[O-])cc1 [MMV1580484] | -0.1612 | 8.961 | 125.738 |  |  |  |  |  |  | 
CC(C)N(c1cc(-c2ccccc2)sc1C(=O)O)C(=O)[C@H]1CC[C@H](C)CC1 [MMV1634388] | 1.026 | 40.2559 | 13.9085 | 0.59 | 0.29 | 128.08 |  |  |  | 
O=S(=O)(Nc1ccc(-n2cccc2)cc1)c1ccc(Cl)c(Cl)c1 [MMV1505642] | -0.09064 | -9.692 | 76.9008 |  |  |  |  |  |  | 
CCNC(=O)Nc1cn2c(-c3ncc(CC)cn3)cc(-c3cccnc3)cc2n1 [MMV1782403] | -2.559 | 16.0574 | 142.751 |  |  |  |  |  |  | 
CC(C)(C)OC(=O)NCc1ccc(C(=O)N[C@H]2CCOC2=O)cc1 [MMV1581547] | -1.162 | 45.6301 | 30.2259 |  |  |  |  |  |  | 
O=[N+]([O-])c1ccc2c(CCc3c[nH]c4ccccc34)c[nH]c2c1 [MMV1593539] | 1.886 | 90.6206 | 72.058 |  |  |  |  |  |  | 
O=C(Cn1cnc2ccccc2c1=O)Nc1ccccc1 [MMV1578891] | -0.325 | -3.282 | 139.913 |  |  |  |  |  |  | 
Oc1ccc2[nH]c(-c3ccccc3)nc2c1 [MMV292173] | -3.6461 | 2.293 | 56.2358 |  |  |  |  |  |  | 
Cl.Nc1nc(-c2ccccc2)nc2c1ncn2[C@@H]1O[C@H](COS(=O)(=O)NC(=O)c2ccccc2O)[C@@H](O)[C@H]1O [MMV1582488] | -1.401 | 11.4821 | 117.234 |  |  |  |  |  |  | 
CC(C)Nc1nc2cc(Cl)c(Cl)cc2n1[C@H]1O[C@@H](CO)[C@H](O)[C@@H]1O [MMV1593521] | 1.092 | -0.5297 | 80.7959 |  |  |  |  |  |  | 

SMILES | PGI d5 (relative PGI release) [1, 3] [%] | PGI d12 (relative PGI release) [1, 3] [%] | Viability d12 (relative viability) [2, 4] [%] | PGI d5 (relative PGI release) [1, 5] [%] | PGI d12 (relative PGI release) [1, 5] [%] | Viability d12 (relative viability) [2, 6] [%] | Viability d12 (relative viability) ([2]; 10 µM) [%] | activity in the PGI release assay (in words) ([1]; overview screen, twelve days, cut-off PGI release ≥20 %) | viability at 10 µM ([2]; Echinococcus multilocularis, 288 h, overview screen, 10 μM, singlets, 12 days, relative to DMSO control, read-out: Viability d12 (relative viability)) [%] | effect on metacestode vesicle viability (in words) ([2]; overview screen, 10 μM, twelve days, cut-off viability ≤30 %)
COCCn1cnc2c(O)nc(Nc3ccccc3)nc21 [MMV1782103] | -0.2041 | -2.0996 | 66.6969 |  |  |  |  |  |  | 
Nc1nc(=O)c(Br)c(-c2ccccc2)[nH]1 [MMV690540] | 2.1344 | 38.5177 | 20.6612 | 0.19 | 1.01 | 98.22 |  |  |  | 
C[C@H]1CC[C@]2(NC1)O[C@H]1C[C@H]3[C@@H]4CC[C@H]5C[C@@H](O)CC[C@]5(C)[C@H]4CC[C@]3(C)[C@H]1[C@@H]2C.Cl [MMV003069] | -0.8739 | -0.2652 | 243.729 |  |  |  |  |  |  | 
[N-]=[N+]=N[C@H]1C[C@H](n2ccc(=O)[nH]c2=O)O[C@@H]1CO [MMV1593520] | 0.5917 | -8.089 | 90.373 |  |  |  |  |  |  | 
CCCC1(C2CC2)c2cc(Cl)ccc2NC(=O)N1C (centres unmarked) [MMV1782113] | 0.2859 | 0.236 | 107.305 |  |  |  |  |  |  | 
CN(C)[C@@H]1C(=O)C(C(N)=O)=C(O)[C@@]2(O)C(=O)C3=C(O)c4c(O)c(NC(=O)CN5CCCC5)cc(F)c4C[C@H]3C[C@@H]12.Cl.Cl [MMV1578574] | -1.676 | -12.2407 | 18.1189 |  |  |  |  |  |  | 
NC(=O)[C@@H]1CC[C@@H]2CN1C(=O)N2OS(=O)(=O)O [MMV1613560] | -1.526 | -13.4159 | 46.8418 |  |  |  |  |  |  | 
O=C(Nc1ccc(-c2ccccc2)cc1)C1=C(O)C(Cc2ccccc2)OC1=O (centres unmarked) [MMV1593531] | 4.793 | 88.1717 | 16.5533 | 0.17 | 1.55 | 49.52 |  |  |  | 
CC[C@@]1(O)C(=O)OCc2c1cc1n(c2=O)Cc2cc3c([N+](=O)[O-])cccc3nc2-1 [MMV1580796] | 0.7883 | -0.447 | 120.917 |  |  |  |  |  |  | 
CCOc1ccc(C(=O)NCCc2ccccc2)cc1 [MMV124656] | -0.3368 | 10.9951 | 194.706 |  |  |  |  |  |  | 
CC(C)=CCC/C(C)=C\CNCCNC1C2CC3CC(C2)CC1C3 (centres unmarked) [MMV687273] | 0.6754 | -4.6575 | 47.5933 |  |  |  |  |  |  | 
Cc1nc(Nc2ccc(F)cc2)nc(N2CCc3ccccc3C2C)c1C (centres unmarked) [MMV030787] | -1.879 | -7.918 | 56.6945 |  |  |  |  |  |  | 
O=C(/C=C\n1cnc(-c2cc(C(F)(F)F)cc(C(F)(F)F)c2)n1)NNc1ccccn1 [MMV1580493] | 1.061 | 0.9356 | 159.076 |  |  |  |  |  |  | 
C=C(C)n1c(=O)n(Cc2ccccc2C)c2ccccc21 [MMV1579354] | 29.5855 | 93.1874 | 10.0196 | -0.0635 | 0.33 | 130.19 |  |  |  | 
Cc1cc(C2CCCCC2)n(O)c(=O)c1 [MMV002731] | -0.5492 | -23.4097 |  |  |  |  | 50.1817 |  |  | 
CCc1cc(Nc2cc(=O)n(CCN3CCN(C(=O)c4ccccc4)CC3)c(=O)[nH]2)ccc1C [MMV1634383] | 0.8629 | 52.997 | 104.622 |  |  |  |  |  |  | 
N#Cc1c(F)c(Cl)c(NCc2ccccc2)c(C#N)c1F [MMV1582496, 4-(benzylamino)-5-chloro-2,6-difluorobenzene-1,3-dicarbonitrile] | 23.5135 | 27.7197 |  |  |  |  |  | active in the PGI assay after twelve days | 121 | did not reduce the metacestode vesicle viability
CN1C(=O)C(c2ccccc2)C(=O)N(c2ccccc2)c2cc(C(F)(F)F)ccc21 (centres unmarked) [MMV1782208] | 0.993 | -0.2102 | 97.8548 |  |  |  |  |  |  | 
O=C(Nc1ccc(Cl)c(C(F)(F)F)c1)C(CCCl)C(=O)Nc1ccc(Cl)c(C(F)(F)F)c1 [MMV1580840] | 14.7528 | 31.1069 | 11.8566 | -0.17 | 0.36 | 81.80 |  |  |  | 
